According to ChEMBL document CHEMBL5126603, “Discovery of Clinical Candidate CHF-6366: A Novel Super-soft Dual Pharmacology Muscarinic Antagonist and β2 Agonist (MABA) for the Inhaled Treatment of Respiratory Diseases” (J Med Chem, 2022):

What was measured:
[1] = Metabolic stability in human hepatocytes assessed as clearance at 1 uM measured per 10^6 cells and incubated upto 90 mins by LC-MS/MS analysis; assay type: ADME, cell-based, Hepatocyte; settings: read-out: CLH
[2] = Metabolic stability in Dunkin-Hartley guinea pig hepatocytes assessed as clearance at 1 uM measured per 10^6 cells and incubated upto 90 mins by LC-MS/MS analysis; assay type: ADME, cell-based, Cavia porcellus, Hepatocyte; settings: read-out: CLH
[3] = Metabolic stability in rat liver microsomes assessed as clearance at 1 uM measured per mg protein incubated upto 60 mins in presence of NADPH by LC-MS/MS analysis; assay type: ADME, Microsome; settings: read-out: CLH
[4] = Metabolic stability in human lung S9 fraction assessed as half life at 1 uM measured after 0 to 60 mins in presence of NADPH by LC-MS/MS analysis; assay type: ADME, subcellular; settings: time 0-60 min
[5] = Metabolic stability in Dunkin-Hartley guinea pig lung S9 fraction assessed as half life at 1 uM measured after 0 to 60 mins in presence of NADPH by LC-MS/MS analysis; assay type: ADME, subcellular, Cavia porcellus; settings: time 0-60 min
[6] = Apparent permeability across basolateral to apical side in human Caco-2 cells at 10 uM and measured after 2 hrs by LC-MS/MS analysis; assay type: ADME, cell-based
[7] = Efflux ratio of apparent permeability from basolateral to apical side over apical to basolateral side in human Caco-2 cells at 10 uM and measured after 2 hrs by LC-MS/MS analysis; assay type: ADME, cell-based
[8] = Metabolic stability in Dunkin-Hartley guinea pig plasma assessed as half life at 5 uM measured upto 120 mins by LC-MS/MS analysis; assay type: ADME, cell-free, Cavia porcellus
[9] = Cmax in Dunkin-Hartley guinea pig lung at 500 nmol/Kg, IT(Intratracheal) measured after 72 hrs by LC/MS-MS analysis; assay type: ADME, tissue-based, Cavia porcellus; design: time 72 hrs, dose 500 nmol/kg, route it(Intratracheal); settings: inhaled or intranasal
[10] = AUClast in Dunkin-Hartley guinea pig lung at 500 nmol/Kg, IT(Intratracheal) measured after 72 hrs by LC/MS-MS analysis; assay type: ADME, tissue-based, Cavia porcellus; settings: in vivo, inhaled_or_intranasal
[11] = Half life in Dunkin-Hartley guinea pig lung at 500 nmol/Kg, IT(Intratracheal) measured after 72 hrs by LC/MS-MS analysis; assay type: ADME, tissue-based, Cavia porcellus; settings: inhaled or intranasal
[12] = Cmax in Dunkin-Hartley guinea pig plasma at 500 nmol/Kg, IT(Intratracheal) measured after 72 hrs by LC/MS-MS analysis; assay type: ADME, cell-free, Cavia porcellus; design: dose 500 nmol/kg, time 72 hrs, route it(Intratracheal); settings: inhaled or intranasal
[13] = Tmax in Dunkin-Hartley guinea pig plasma at 500 nmol/Kg, IT(Intratracheal) measured after 72 hrs by LC/MS-MS analysis; assay type: ADME, cell-free, Cavia porcellus; settings: inhaled or intranasal
[14] = AUClast in Dunkin-Hartley guinea pig plasma at 500 nmol/Kg, IT(Intratracheal) measured after 72 hrs by LC/MS-MS analysis; assay type: ADME, cell-free, Cavia porcellus; design: time 72 hrs, dose 500 nmol/kg, route it(Intratracheal); settings: inhaled or intranasal
[15] = AUCinfinity in Dunkin-Hartley guinea pig plasma at 500 nmol/Kg, IT(Intratracheal) measured after 72 hrs by LC/MS-MS analysis; assay type: ADME, cell-free, Cavia porcellus; design: dose 500 nmol/kg, time 72 hrs, route it(Intratracheal); settings: inhaled or intranasal
[16] = Mutagenicity in Salmonella typhimurium assessed as induction of reverse mutation by Ames test; assay type: toxicity; settings: salmonella enterica subsp. enterica serovar typhimurium
Trachea [17] = assay: In vivo bifunctional antagonist activity at muscarinic M3 receptor /agonist activity at beta-2 adrenoceptor in Dunkin-Hartley guinea pig trachea assessed as time duration for inhibition of carbachol induced contraction measured […]; assay type: functional, Cavia porcellus
Trachea [18] = assay: In vivo bifunctional antagonist activity at muscarinic M3 receptor /agonist activity at beta-2 adrenoceptor in Dunkin-Hartley guinea pig trachea assessed as inhibition of carbachol induced contraction; assay type: functional, tissue-based; settings: Cavia porcellus
Trachea [19] = assay: Bifunctional antagonist activity at muscarinic M3 receptor /agonist activity at beta-2 adrenoceptor in Dunkin-Hartley guinea pig trachea assessed as inhibition of acetylcholine-induced bronchoconstriction at 0.1 nmol/Kg, IT(Intratracheal) measured after 15 mins by Konzett-Roessler methodology relative to control; assay type: functional; settings: Cavia porcellus, 0.25 h
Trachea [20] = assay: Bifunctional antagonist activity at muscarinic M3 receptor /agonist activity at beta-2 adrenoceptor in Dunkin-Hartley guinea pig trachea assessed as inhibition of acetylcholine-induced bronchoconstriction at 0.3 nmol/Kg, IT(Intratracheal) measured after 5 mins by Konzett-Roessler methodology relative to control; assay type: functional; settings: Cavia porcellus
Trachea [21] = assay: Bifunctional antagonist activity at muscarinic M3 receptor /agonist activity at beta-2 adrenoceptor in Dunkin-Hartley guinea pig trachea assessed as inhibition of acetylcholine-induced bronchoconstriction at 0.3 nmol/Kg, IT(Intratracheal) measured after 15 mins by Konzett-Roessler methodology relative to control; assay type: functional; settings: Cavia porcellus, 0.25 h
Trachea [22] = assay: Bifunctional antagonist activity at muscarinic M3 receptor /agonist activity at beta-2 adrenoceptor in Dunkin-Hartley guinea pig trachea assessed as inhibition of acetylcholine-induced bronchoconstriction at 1 nmol/Kg, IT(Intratracheal) measured after 5 mins by Konzett-Roessler methodology relative to control; assay type: functional; settings: Cavia porcellus
Trachea [23] = assay: Bifunctional antagonist activity at muscarinic M3 receptor /agonist activity at beta-2 adrenoceptor in Dunkin-Hartley guinea pig trachea assessed as inhibition of acetylcholine-induced bronchoconstriction at 1 nmol/Kg, IT(Intratracheal) measured after 15 mins by Konzett-Roessler methodology relative to control; assay type: functional; settings: Cavia porcellus, 0.25 h
Trachea [24] = assay: Bifunctional antagonist activity at muscarinic M3 receptor /agonist activity at beta-2 adrenoceptor in Dunkin-Hartley guinea pig trachea assessed as inhibition of acetylcholine-induced bronchoconstriction at 1 nmol/Kg, IT(Intratracheal) measured after 30 mins by Konzett-Roessler methodology relative to control; assay type: functional; settings: Cavia porcellus, 0.5 h
[25] = molecular target: D(2) dopamine receptor (Homo sapiens) (UniProt P14416); assay: Inhibition of dopamine D2 receptor (unknown origin) at 10 uM relative to control
D(2) dopamine receptor (Homo sapiens), sequence (P14416 whole entry): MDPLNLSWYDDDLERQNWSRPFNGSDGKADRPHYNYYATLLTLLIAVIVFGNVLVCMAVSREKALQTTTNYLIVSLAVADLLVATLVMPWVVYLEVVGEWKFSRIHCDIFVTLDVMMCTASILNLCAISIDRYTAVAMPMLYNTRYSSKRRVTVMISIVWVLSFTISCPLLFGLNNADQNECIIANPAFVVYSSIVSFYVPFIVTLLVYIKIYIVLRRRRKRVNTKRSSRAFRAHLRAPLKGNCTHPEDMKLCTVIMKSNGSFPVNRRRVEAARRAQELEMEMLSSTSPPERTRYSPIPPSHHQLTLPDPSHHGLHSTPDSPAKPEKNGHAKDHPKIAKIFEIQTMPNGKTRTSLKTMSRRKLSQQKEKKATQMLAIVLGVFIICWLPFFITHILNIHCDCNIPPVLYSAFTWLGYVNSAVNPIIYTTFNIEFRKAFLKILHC

[26] = molecular target: 5-hydroxytryptamine receptor 1B (Homo sapiens) (UniProt P28222); assay: Inhibition of 5-HT1B receptor (unknown origin) at 10 uM relative to control
5-hydroxytryptamine receptor 1B (Homo sapiens), sequence (P28222 whole entry): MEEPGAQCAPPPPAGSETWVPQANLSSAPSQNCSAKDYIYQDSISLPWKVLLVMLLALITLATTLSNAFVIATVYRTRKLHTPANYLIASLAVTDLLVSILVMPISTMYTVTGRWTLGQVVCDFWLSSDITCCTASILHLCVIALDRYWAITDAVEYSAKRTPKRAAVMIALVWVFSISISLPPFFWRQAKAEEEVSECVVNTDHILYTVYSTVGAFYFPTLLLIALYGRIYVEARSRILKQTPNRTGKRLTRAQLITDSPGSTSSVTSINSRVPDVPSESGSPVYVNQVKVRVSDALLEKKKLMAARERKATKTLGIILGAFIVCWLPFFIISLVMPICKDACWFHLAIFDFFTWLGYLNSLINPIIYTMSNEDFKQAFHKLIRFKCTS

[27] = molecular target: 5-hydroxytryptamine receptor 2A (Homo sapiens) (UniProt P28223); assay: Inhibition of 5-HT2a (unknown origin) at 10 uM relative to control
5-hydroxytryptamine receptor 2A (Homo sapiens), sequence (P28223 whole entry): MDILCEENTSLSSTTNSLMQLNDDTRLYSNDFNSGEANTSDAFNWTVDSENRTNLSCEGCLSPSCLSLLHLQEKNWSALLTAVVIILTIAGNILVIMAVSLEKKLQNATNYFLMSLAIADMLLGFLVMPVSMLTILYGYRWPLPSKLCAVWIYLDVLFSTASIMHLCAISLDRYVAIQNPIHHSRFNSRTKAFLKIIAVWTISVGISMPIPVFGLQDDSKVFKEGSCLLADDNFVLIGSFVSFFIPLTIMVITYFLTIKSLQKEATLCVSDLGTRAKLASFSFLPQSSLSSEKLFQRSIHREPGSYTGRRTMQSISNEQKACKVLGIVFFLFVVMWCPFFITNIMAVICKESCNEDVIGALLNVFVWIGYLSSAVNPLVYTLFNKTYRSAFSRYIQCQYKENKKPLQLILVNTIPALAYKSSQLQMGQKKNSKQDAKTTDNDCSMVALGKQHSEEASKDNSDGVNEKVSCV

[28] = molecular target: Sodium-dependent serotonin transporter (Homo sapiens) (UniProt P31645); assay: Inhibition of serotonin transporter (unknown origin) at 10 uM relative to control
Sodium-dependent serotonin transporter (Homo sapiens), sequence (P31645 whole entry, looked up): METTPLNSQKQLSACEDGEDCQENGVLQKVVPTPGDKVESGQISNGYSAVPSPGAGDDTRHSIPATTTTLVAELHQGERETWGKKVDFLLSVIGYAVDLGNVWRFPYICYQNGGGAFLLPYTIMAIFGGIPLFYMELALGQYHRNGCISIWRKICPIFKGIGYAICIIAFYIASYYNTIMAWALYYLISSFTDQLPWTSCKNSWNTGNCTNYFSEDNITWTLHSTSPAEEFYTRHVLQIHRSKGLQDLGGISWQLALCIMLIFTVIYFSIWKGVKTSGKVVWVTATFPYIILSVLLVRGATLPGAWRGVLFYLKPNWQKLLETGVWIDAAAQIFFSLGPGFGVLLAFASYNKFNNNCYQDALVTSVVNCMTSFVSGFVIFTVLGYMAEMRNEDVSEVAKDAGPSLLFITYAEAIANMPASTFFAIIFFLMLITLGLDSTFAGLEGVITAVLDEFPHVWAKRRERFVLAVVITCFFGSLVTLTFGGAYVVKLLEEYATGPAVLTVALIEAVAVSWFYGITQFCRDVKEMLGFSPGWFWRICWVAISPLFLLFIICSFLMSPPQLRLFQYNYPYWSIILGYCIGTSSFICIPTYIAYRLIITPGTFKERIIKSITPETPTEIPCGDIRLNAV

[29] = In vivo antagonist activity at muscarinic M3 receptor in Dunkin-Hartley guinea pig trachea assessed as inhibition of acetylcholine induced bronchoconstriction at 1 nmol/Kg, IT(Intratracheal) measured after 1 hr in presence of ICI-118551 by Konzett-Roessler methodology relative to control; assay type: functional; settings: Cavia porcellus
[30] = In vivo agonist activity at beta-2 adrenoceptor in Dunkin-Hartley guinea pig trachea assessed as inhibition of histamine induced bronchoconstriction at 1 nmol/Kg, IT(Intratracheal) measured after 1 hr by Konzett-Roessler methodology relative to control; assay type: functional; settings: Cavia porcellus
[31] = In vivo agonist activity at beta-2 adrenoceptor in Dunkin-Hartley guinea pig trachea assessed as inhibition of histamine induced bronchoconstriction at 1 nmol/Kg, IT(Intratracheal) measured after 24 hr by Konzett-Roessler methodology relative to control; assay type: functional; settings: Cavia porcellus
[32] = In vivo agonist activity at beta-2 adrenoceptor in Dunkin-Hartley guinea pig trachea assessed as inhibition of histamine induced bronchoconstriction at 0.3 nmol/Kg, IT(Intratracheal) measured after 1 hr by Konzett-Roessler methodology relative to control; assay type: functional; settings: Cavia porcellus
Trachea [33] = assay: Bifunctional antagonist activity at muscarinic M3 receptor /agonist activity at beta-2 adrenoceptor in Dunkin-Hartley guinea pig trachea assessed as inhibition of acetylcholine induced bronchoconstriction at 1 nmol/Kg, IT(Intratracheal) measured after 24 hr by Konzett-Roessler methodology relative to control; assay type: functional; settings: Cavia porcellus

Cn1nc(C(=O)OCCCCNC[C@H](O)c2ccc(O)c3[nH]c(=O)ccc23)cc1COc1cccc([C@@H](NC(=O)O[C@H]2CN3CCC2CC3)c2ccccc2)c1
hepatocyte CLint at 1 µM [1]: 33 µL/min/1e6 cells
hepatocyte CLint at 1 µM [2]: 37 µL/min/1e6 cells
microsomal CLint at 1 µM [3]: 37 µL/min/mg
half-life at 1 µM [4]: > 120 min
half-life at 1 µM [5]: > 120 min
Papp B→A at 2 h, 10 µM [6]: 1.5 ×10⁻⁶ cm/s
efflux ratio at 2 h, 10 µM [7]: 0.7
half-life at 5 µM [8]: 34 min
Cmax [9]: 28400 ng/g
AUClast [10]: 460361 ng·h/g
half-life [11]: 2950 min
Cmax [12]: 126 ng/g
Tmax [13]: 4.98 min
AUC(0-t) at 72 h [14]: 460 ng·h/mL
AUC(0-inf) [15]: 661 ng·h/mL
Activity [16]: Non-Toxic
Time (Trachea [17]): >225 min
IC50 (Trachea [18]): 0.316 nM
inhibition in vivo at 0.0001 µmol/kg (Trachea [19]): 25.1%
inhibition in vivo at 0.0003 µmol/kg (Trachea [20]): 56.6%
inhibition in vivo at 0.0003 µmol/kg (Trachea [21]): 66.2%
inhibition in vivo at 0.001 µmol/kg (Trachea [22]): 90.1%
inhibition in vivo at 0.001 µmol/kg (Trachea [23]): 91.3%
inhibition in vivo at 0.001 µmol/kg (Trachea [24]): 90.8%
inhibition [25]: > 65%
inhibition [26]: > 65%
inhibition [27]: > 65%
inhibition [28]: > 65%
inhibition in vivo at 0.001 µmol/kg [29]: 84.1%
inhibition in vivo at 0.001 µmol/kg [30]: 69.8%
inhibition in vivo at 0.001 µmol/kg [31]: 50.1%
inhibition in vivo at 0.0003 µmol/kg [32]: 31.9%
inhibition in vivo at 0.001 µmol/kg (Trachea [33]): 74.8%
